Patent US8163909B2, “Substituted hydroxyethyl amine compounds as beta-secretase modulators and methods of use” (Amgen Inc., priority 2007, dated 2012)
Read-outs that look alike come from different tables or passages of the source.

Columns and labels:
[1] = molecular target: Beta Secretase enzyme (BACE) (Homo sapiens, UniProt P56817); test: In vitro enzymatic BACE FRET (fluorescence resonance energy transfer) assay; type: biochemical; conditions: BACE enzyme FRET assay; read-out: BACE1 FRET assay (IC50);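 note: fluorescence read after 1 h with 50 nM quenched peptide substrate spanning the BACE cleavage site, in pH 4.2 acetate buffer containing 10% DMSO and nonionic detergent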
Chain of Beta Secretase enzyme (BACE) (P56817 46-501): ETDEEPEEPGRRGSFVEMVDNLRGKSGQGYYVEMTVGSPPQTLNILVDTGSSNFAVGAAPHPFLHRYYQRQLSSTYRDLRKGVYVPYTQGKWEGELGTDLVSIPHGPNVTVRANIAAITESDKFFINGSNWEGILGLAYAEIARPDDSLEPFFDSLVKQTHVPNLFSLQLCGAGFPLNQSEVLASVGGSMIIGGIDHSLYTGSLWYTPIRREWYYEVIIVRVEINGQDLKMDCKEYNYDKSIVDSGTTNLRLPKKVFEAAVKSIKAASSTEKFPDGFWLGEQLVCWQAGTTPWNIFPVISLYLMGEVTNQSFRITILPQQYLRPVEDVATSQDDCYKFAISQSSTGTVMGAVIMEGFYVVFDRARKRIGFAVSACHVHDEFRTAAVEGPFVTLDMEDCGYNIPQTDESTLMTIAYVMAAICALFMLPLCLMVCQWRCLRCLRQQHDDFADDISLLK

[2] = test system: Aβ40 in conditioned medium of cells stably expressing Amyloid Precursor Protein (APP); test: In vitro BACE cell-based assay (Aβ40 in conditioned medium, sandwich ELISA); conditions: cell-based assay, read-out: HEK cell assay (IC50);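 note: compounds added as a dilution series, secreted peptide quantified by europium time-resolved fluorescence readout, potency fitted from percent of control versus compound concentration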
[3] = Homo sapiens, HEK293, HEK cells

| Structure (SMILES) | IC50 [1] [nM] | IC50 [2, 3] [nM] | IC50 ([2]; HEK cells) [nM] |
| --- | --- | --- | --- |
| COCC(=O)N[C@@H](Cc1ccc2c(c1)OCCO2)[C@H](O)CN[C@H]1CC2(CCC2)Oc2ncc(CC(C)(C)C)cc21 [compound 206] | 22.7 | 42.5 | – |
| CC(=O)N[C@@H](Cc1cc(Cl)c2c(c1)OCO2)[C@H](O)CN[C@H]1CC2(CCC2)Oc2ncc(CC(C)(C)C)cc21 [compound 207] | 6.63 | 14.2 | – |
| COCC(=O)N[C@@H](Cc1cc(Br)c2c(c1)OCO2)[C@H](O)CN[C@H]1CC2(CCC2)Oc2ncc(CC(C)(C)F)cc21 [compound 211] | 423 | 312 | – |
| COc1cc(C[C@H](NC(C)=O)[C@H](O)CN[C@H]2CC3(CCC3)Oc3ncc(CC(C)(C)C(F)F)cc32)ccc1Cl [compound 216] | 16 | 24.9 | – |
| CC(=O)N[C@@H](Cc1cccc(F)c1)[C@H](O)CN[C@H]1CC2(CCC2)Oc2ncc(CC(C)(C)C(F)F)cc21 [compound 217] | 2.92 | 2.98 | – |
| COCC(=O)N[C@@H](Cc1cccc(F)c1)[C@H](O)CN[C@H]1CC2(CCC2)Oc2c(F)cc(CC(C)(C)C)cc21 [compound 221] | 13.7 | 44.4 | – |
| CC(=O)N[C@@H](Cc1ccnc(OCC(F)F)c1)[C@H](O)CN[C@H]1CC2(CCC2)Oc2c(F)cc(CC(C)(C)C)cc21 [compound 223] | 9.69 | 29.8 | – |
| CC(=O)N[C@@H](Cc1cc(F)cc(F)c1)[C@H](O)CN[C@H]1CC2(CCC2)Oc2ncc(CC(C)(C)C(F)F)cc21 [compound 226] | 4.15 | 5.27 | – |
| CC(C)(C)Cc1cnc2c(c1)C(NCC(O)C(Cc1ccc(F)cc1)NC(=O)CF)CC1(CC(O)C1)O2 [compound 230, N-((1S,2R)-3-(((1s,3S,4′S)-6′-(2,2-dimethylpropyl)-3-hydroxy-3′,4′-dihydrospiro[cyclobutane-1,2′-pyrano[2,3-b]pyridin]-4′-yl)amino)-1-((4-fluorophenyl)methyl)-2-hydroxypropyl)-2-fluoroacetamide] | 4.24 | 10 | – |
| COCC(=O)NC(Cc1ccc(F)c(F)c1)C(O)CNC1CC2(CC(O)C2)Oc2ncc(CC(C)(C)C)cc21 [compound 233, N-((1S,2R)-1-((3,4-difluorophenyl)methyl)-3-(((1s,3S,4′S)-6′-(2,2-dimethylpropyl)-3-hydroxy-3′,4′-dihydrospiro[cyclobutane-1,2′-pyrano[2,3-b]pyridin]-4′-yl)amino)-2-hydroxypropyl)-2-(methyloxy)acetamide] | 7.24 | 7.33 | – |
| COCC(=O)NC(Cc1ccc(Cl)cc1)C(O)CNC1CC2(CC(O)C2)Oc2ncc(CC(C)(C)C)cc21 [compound 234, N-((1S,2R)-1-((4-chlorophenyl)methyl)-3-(((1s,3S,4′S)-6′-(2,2-dimethylpropyl)-3-hydroxy-3′,4′-dihydrospiro[cyclobutane-1,2′-pyrano[2,3-b]pyridin]-4′-yl)amino)-2-hydroxypropyl)-2-(methyloxy)acetamide] | 4.04 | 13.5 | – |
| COCC(=O)NC(Cc1cccc(F)c1)C(O)CNC1CC2(CC(O)C2)Oc2cnccc21 [compound 236, N-((1S,2R)-1-((3-fluorophenyl)methyl)-2-hydroxy-3-(((1r,3R,4′S)-3-hydroxy-3′,4′-dihydrospiro[cyclobutane-1,2′-pyrano[2,3-c]pyridin]-4′-yl)amino)propyl)-2-(methyloxy)acetamide] | 5180 | – | 270 |
| COCC(=O)NC(Cc1ccc2c(c1)OCO2)C(O)CNC1CC2(CC(C)C2)Oc2ncc(CC(C)(C)C)cc21 [compound 238, N-((1S,2R)-1-(1,3-benzodioxol-5-ylmethyl)-3-(((1s,3R,4′S)-6′-(2,2-dimethylpropyl)-3-methyl-3′,4′-dihydrospiro[cyclobutane-1,2′-pyrano[2,3-b]pyridin]-4′-yl)amino)-2-hydroxypropyl)-2-(methyloxy)acetamide] | 18.4 | 32.7 | – |
| COC(C)C(=O)NC(Cc1ccc2c(c1)OCO2)C(O)CNC1CC2(CC(C)C2)Oc2ncc(CC(C)(C)C)cc21 [compound 239, (2R)—N-((1S,2R)-1-(1,3-benzodioxol-5-ylmethyl)-3-(((1s,3R,4′S)-6′-(2,2-dimethylpropyl)-3-methyl-3′,4′-dihydrospiro[cyclobutane-1,2′-pyrano[2,3-b]pyridin]-4′-yl)amino)-2-hydroxypropyl)-2-(methyloxy)propanamide] | 17.8 | 34.6 | – |

The remaining compounds from weak to strong by IC50 [1], led by results:

| IC50 [1] [nM] | IC50 [2, 3] [nM] | IC50 ([2]; HEK cells) [nM] | Structure (SMILES) |
| --- | --- | --- | --- |
| 6420 | 2450 | – | CC(=O)NC(Cc1cccc(F)c1)C(O)CNC1CC2(CC(O)C2)Oc2cnccc21 [compound 237, N-((1S,2R)-1-((3-fluorophenyl)methyl)-2-hydroxy-3-(((1r,3R,4′S)-3-hydroxy-3′,4′-dihydrospiro[cyclobutane-1,2′-pyrano[2,3-c]pyridin]-4′-yl)amino)propyl)acetamide] |
| 581 | 452 | – | COCC(=O)NC(Cc1cccc(F)c1)C(O)CNC1CC2(CC(O)C2)Oc2cnccc21 [compound 235, N-((1S,2R)-1-((3-fluorophenyl)methyl)-2-hydroxy-3-(((1s,3S,4′S)-3-hydroxy-3′,4′-dihydrospiro[cyclobutane-1,2′-pyrano[2,3-c]pyridin]-4′-yl)amino)propyl)-2-(methyloxy)acetamide] |
| 163 | 224 | – | CO[C@H](C)C(=O)N[C@@H](Cc1cc(Br)c2c(c1)OCO2)[C@H](O)CN[C@H]1CC2(CCC2)Oc2ncc(CC(C)(C)C)cc21 [compound 210, (2R)—N-((1S,2R)-1-((7-bromo-1,3-benzodioxol-5-yl)methyl)-3-(((4′S)-6′-(2,2-dimethylpropyl)-3′,4′-dihydrospiro[cyclobutane-1,2′-pyrano[2,3-b]pyridin]-4′-yl)amino)-2-hydroxypropyl)-2-(methyloxy)propanamide] |
| 57 | 78.7 | – | COCC(=O)N[C@@H](CC1CC1)[C@H](O)CN[C@H]1CC2(CCC2)Oc2ncc(CC(C)(C)C)cc21 [compound 213] |
| 22.9 | 22.9 | – | CC(=O)N[C@@H](Cc1ccc2c(c1)OCCO2)[C@H](O)CN[C@H]1CC2(CCC2)Oc2ncc(CC(C)(C)C)cc21 [compound 205] |
| 15.1 | 31.4 | – | CO[C@H](C)C(=O)N[C@@H](Cc1ccc(Cl)c(F)c1)[C@H](O)CN[C@H]1CC2(CCC2)Oc2ncc(CC(C)(C)C(F)F)cc21 [compound 227] |
| 12.2 | 18.1 | – | CO[C@H](C)C(=O)N[C@@H](Cc1cc(Cl)c2c(c1)OCO2)[C@H](O)CN[C@H]1CC2(CCC2)Oc2ncc(CC(C)(C)C)cc21 [compound 209] |
| 9.22 | 23.9 | – | CC(=O)N[C@@H](Cc1ccc(Cl)c(F)c1)[C@H](O)CN[C@H]1CC2(CCC2)Oc2ncc(CC(C)(C)C(F)F)cc21 [compound 225] |
| 8.77 | 9.03 | – | COCC(=O)N[C@@H](Cc1ccc(F)c(OC(F)F)c1)[C@H](O)CN[C@H]1CC2(CCC2)Oc2ncc(CC(C)(C)C)cc21 [compound 214] |
| 8.19 | 85.5 | – | COCC(=O)N[C@@H](Cc1ccc(F)cc1)[C@H](O)CN[C@H]1CC2(CCC2)Oc2c(F)cc(CC(C)(C)C)cc21 [compound 229] |
| 7.05 | 26.4 | – | CC(=O)N[C@@H](Cc1ccc(F)c(Cl)c1)[C@H](O)CN[C@H]1CC2(CCC2)Oc2ncc(CC(C)(C)C(F)F)cc21 [compound 215] |
| 6.41 | 9.96 | – | COCC(=O)N[C@@H](Cc1cc(Cl)c2c(c1)OCO2)[C@H](O)CN[C@H]1CC2(CCC2)Oc2ncc(CC(C)(C)C)cc21 [compound 208] |
| 6.15 | 7.56 | – | CO[C@H](C)C(=O)N[C@@H](Cc1cc(F)cc(F)c1)[C@H](O)CN[C@H]1CC2(CCC2)Oc2ncc(CC(C)(C)C(F)F)cc21 [compound 228] |
| 5.08 | 5.99 | – | CO[C@H](C)C(=O)N[C@@H](Cc1cccc(F)c1)[C@H](O)CN[C@H]1CC2(CCC2)Oc2ncc(CC(C)(C)C(F)F)cc21 [compound 219] |
| 4.67 | 19.3 | – | CC(=O)N[C@@H](Cc1cc(F)cc(F)c1)[C@H](O)CN[C@H]1CC2(CCC2)Oc2c(F)cc(CC(C)(C)C)cc21 [compound 224] |
| 4.45 | 12.7 | – | CO[C@H](C)C(=O)N[C@@H](Cc1cccc(F)c1)[C@H](O)CN[C@H]1CC2(CCC2)Oc2c(F)cc(CC(C)(C)C)cc21 [compound 222] |
| 4.38 | 5.25 | – | COCC(=O)N[C@@H](Cc1cccc(F)c1)[C@H](O)CN[C@H]1CC2(CCC2)Oc2ncc(CC(C)(C)C(F)F)cc21 [compound 218] |
| 4.05 | 11.6 | – | CC(=O)N[C@@H](Cc1cccc(F)c1)[C@H](O)CN[C@H]1CC2(CCC2)Oc2c(F)cc(CC(C)(C)C)cc21 [compound 220] |
| 4.04 | 3.04 | – | CC(=O)NC(Cc1cccc(F)c1)C(O)CNC1CC2(CC(O)C2)Oc2ncc(CC(C)(C)C)cc21 [compound 231, N-((1S,2R)-3-(((1s,3S,4′S)-6′-(2,2-dimethylpropyl)-3-hydroxy-3′,4′-dihydrospiro[cyclobutane-1,2′-pyrano[2,3-b]pyridin]-4′-yl)amino)-1-((3-fluorophenyl)methyl)-2-hydroxypropyl)acetamide] |
| 2.34 | – | 3.27 | COCC(=O)N[C@@H](Cc1cccc(F)c1)[C@H](O)CN[C@H]1C[C@]2(C[C@H](O)C2)Oc2ncc(CC(C)(C)C)cc21 [compound 232, N-((1S,2R)-3-(((1s,3S,4′S)-6′-(2,2-dimethylpropyl)-3-hydroxy-3′,4′-dihydrospiro[cyclobutane-1,2′-pyrano[2,3-b]pyridin]-4′-yl)amino)-1-((3-fluorophenyl)methyl)-2-hydroxypropyl)-2-(methyloxy)acetamide] |
| 2.15 | 31.4 | – | COCC(=O)N[C@@H](Cc1ccc(Cl)cc1)[C@H](O)CN[C@H]1CC2(CCC2)Oc2ncc(CC(C)(C)C)cc21 [compound 212] |
